Measured values: US9920061B2, “Imidazo[1,5-A]pyrimidinyl carboxamide compounds and their use in the treatment of medical disorders” (Lysosomal Therapeutics Inc., priority 2016, dated 2018)
Values after ≈ are worked out from the molar mass of the structure shown. Where two headings read alike, the source gives them in different places.

What was measured:
[1] = Compound solubility in water; format: physicochemical
[2] = target: T1, glucocerebrosidase (Gcase) (Homo sapiens, UniProt P04062); assay: Glucocerebrosidase (Gcase) activation assay, 4-methylumbelliferyl-beta-D-glucopyranoside substrate, with saposin C; format: biochemical
T1 sequence (P04062 40-536): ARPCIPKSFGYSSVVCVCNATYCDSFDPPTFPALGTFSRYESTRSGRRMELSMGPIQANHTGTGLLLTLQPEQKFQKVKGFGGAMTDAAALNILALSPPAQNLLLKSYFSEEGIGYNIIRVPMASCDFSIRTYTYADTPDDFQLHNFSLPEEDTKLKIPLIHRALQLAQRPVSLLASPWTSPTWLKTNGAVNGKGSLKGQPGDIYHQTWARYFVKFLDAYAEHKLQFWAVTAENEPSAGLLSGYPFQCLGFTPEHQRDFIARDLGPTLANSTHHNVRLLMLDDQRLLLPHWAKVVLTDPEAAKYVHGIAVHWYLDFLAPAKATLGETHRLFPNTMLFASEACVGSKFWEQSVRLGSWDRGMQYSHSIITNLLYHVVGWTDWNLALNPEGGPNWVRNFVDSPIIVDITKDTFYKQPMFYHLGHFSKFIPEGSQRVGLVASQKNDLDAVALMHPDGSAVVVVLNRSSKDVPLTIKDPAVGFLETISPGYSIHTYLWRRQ
Procedure, shortened: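 Micellar buffer (176 mM K2HPO4/50 mM citric acid, pH 4.7; 0.32 mM triton, 0.37 mol % PS) holding 10 nM GCase and 100 nM saposin C, pre-incubated with compound 30 min at room temperature. Substrate final 2 mM before mixing; 15 min reaction, glycine pH 12.5 stop, fluorescence 365/440 nm. Screened at 1.0 and 0.1 μM; 8-point, 3-fold dose response.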

[3] = test compound at 0.1 μM, read-out: Percent Gcase Activation, 0.1 μM Test Compound
[4] = test compound at 1.0 μM, read-out: Percent Gcase Activation, 1 μM Test Compound
[5] = 0.1 μM test compound, read-out: Percent Gcase Activation 0.1 μM Test Compound
[6] = 1 μM test compound, read-out: Percent Gcase Activation 1 μM Test Compound

Compound	solubility ([1]; in water) [µg/mL]	activation at 0.1 µM [2, 3] [%]	activation at 1 µM [2, 4] [%]	solubility [1] [µg/mL]	activation at 0.1 µM [2, 5] [%]	activation at 1 µM [2, 6] [%]
CCc1cc(N2CCN(C(C)C)C2=O)nc2c(C(=O)NC(C3CC3)C(F)(F)F)ncn12 (stereo not drawn) [IV-16]	24.6 (≈ 56.1 µM)	10 to 20	> 60			
Cc1cc(-c2cccc(Cl)c2)nc2c(C(=O)N[C@@H](C)C3CC3)ncn12 [III-110]				3.6 (≈ 10.1 µM)	> 20	> 60
COc1cncc(-c2cc(C)n3cnc(C(=O)N[C@@H](C)C4CC4)c3n2)c1 [III-97]				17.3 (≈ 49.2 µM)	< 10	30 to 60
COc1c(F)cccc1-c1cc(C)n2cnc(C(=O)NC(C)C(F)(F)F)c2n1 (stereo not drawn) [IV-64]	21 (≈ 53 µM)	< 10	30 to 60			
Cc1cc(C)n2cnc(C(=O)N[C@H]3[C@@H]4CC[C@H]3C[C@@H](OC(C)(C)C)C4)c2n1 [IV-10]	1 (≈ 2.7 µM)	> 20	> 60			
COCc1cc(-c2cc(F)cc(F)c2)nc2c(C(=O)N[C@@H](C)C3CC3)ncn12 [III-116]				0.6 (≈ 1.55 µM)	10 to 20	> 60
Cc1cc(-c2cccc3ncoc23)nc2c(C(=O)N[C@@H](C3CC3)C(F)(F)F)ncn12 [IV-18]	0.4 (≈ 0.963 µM)	> 20	> 60			
CCc1cc(-c2ccc(F)cc2)nc2c(C(=O)N[C@@H](C)C3CC3)ncn12 [III-33]				10.5 (≈ 29.8 µM)	> 20	> 60
Cc1cc(-c2cccc(F)c2)nc2c(C(=O)NC(C)(C)C3CC3)ncn12 [III-109]				1.1 (≈ 3.12 µM)	> 20	> 60
Cc1cc(-c2cccc(OC(F)(F)F)n2)nc2c(C(=O)N[C@@H](C)C3CC3)ncn12 [IV-101]	1.5 (≈ 3.7 µM)	> 20	> 60			
Cc1cc(OC2CCC2)nc2c(C(=O)NC(C3CC3)C3CC3)ncn12 [III-180]				23.3 (≈ 68.4 µM)	10 to 20	> 60
CC[C@H](C)NC(=O)c1ncn2c(C)cc(-c3cccc(F)c3)nc12 [III-132]				18.6 (≈ 57 µM)	10 to 20	> 60
Cc1cc(-c2ccncc2)nc2c(C(=O)NC(C)(C)C3CC3)ncn12 [III-93]				18.8 (≈ 56.1 µM)	< 10	< 30
Cc1cc(-c2ccc3ocnc3c2)nc2c(C(=O)N[C@@H](C)C3CC3)ncn12 [III-130]				7.7 (≈ 21.3 µM)	> 20	> 60
CCCCO[C@H]1C[C@H]2CC[C@@H](C1)[C@@H]2NC(=O)c1ncn2c(COC)cc(C)nc12 [IV-3]	15.3 (≈ 38.2 µM)	< 10	30 to 60			
COc1cccc(-c2cc(C)n3cnc(C(=O)N[C@H](C)C4CC4)c3n2)c1 [IV-1]	8.3 (≈ 23.7 µM)	10 to 20	> 60			
COc1c(C#N)cccc1-c1cc(C)n2cnc(C(=O)NC(C)C(F)(F)F)c2n1 (stereo not drawn) [IV-66]	23.9 (≈ 59.3 µM)	< 10	< 30			
Cc1cc(-c2cc(F)cc(F)c2)nc2c(C(=O)NC(C)(C)C)ncn12 [III-125]				0.2 (≈ 0.581 µM)	> 20	> 60
COc1cccc(-c2cc(C)n3cnc(C(=O)N[C@@H](C)C(F)(F)F)c3n2)c1 [IV-22]	1.7 (≈ 4.49 µM)	> 20	> 60			
COc1c(C#N)cccc1-c1cc(C)n2cnc(C(=O)N[C@@H](C)C3CC3)c2n1 [IV-65]	15.6 (≈ 41.6 µM)	< 10	< 30			
COc1cccc(-c2cc(C)n3cnc(C(=O)NC(C4CC4)C(F)(F)F)c3n2)c1 (stereo not drawn) [III-182]				1.5 (≈ 3.71 µM)	> 20	> 60
Cc1cc(-c2cc(F)cc(C#N)c2)nc2c(C(=O)NC(C)(C)C)ncn12 [IV-111]	0.9 (≈ 2.56 µM)	10 to 20	> 60			
CCOc1cccc(-c2cc(C)n3cnc(C(=O)NC(C)(C)C4CC4)c3n2)n1 [III-156]				0.8 (≈ 2.11 µM)	< 10	30 to 60
Cc1cc(OC(C)C)nc2c(C(=O)NC(C3CC3)C3CC3)ncn12 [III-178]				17.4 (≈ 53 µM)	10 to 20	> 60
Cc1cc(-c2cscc2C#N)nc2c(C(=O)NC(C3CC3)C(F)(F)F)ncn12 (stereo not drawn) [IV-32]	0.6 (≈ 1.48 µM)	> 20	> 60			

Compound	solubility ([1]; in water) [µg/mL]	activation at 0.1 µM [2, 3] [%]	activation at 1 µM [2, 4] [%]	solubility [1] [µg/mL]	activation at 0.1 µM [2, 5] [%]	activation at 1 µM [2, 6] [%]
Cc1cc(-c2nc(Cl)cs2)nc2c(C(=O)NC(C)(C)C3CC3)ncn12 [III-140]				0.8 (≈ 2.13 µM)	< 10	< 30
Cc1cc(-n2cncn2)nc2c(C(=O)NC(C)(C)C3CC3)ncn12 [III-68]				27.3 (≈ 83.9 µM)	< 10	< 30
Cc1cc(-c2cccc(F)c2)nc2c(C(=O)N[C@@H](C3CC3)C(F)(F)F)ncn12 [IV-20]	0.7 (≈ 1.78 µM)	> 20	> 60			
Cc1cc(-c2ccc(F)cc2)nc2c(C(=O)N[C@@H](C3CC3)C(F)(F)F)ncn12 [IV-46]	0.8 (≈ 2.04 µM)	> 20	> 60			
Cc1cc(-c2ccoc2)nc2c(C(=O)NC(C3CC3)C(F)(F)F)ncn12 (stereo not drawn) [IV-84]	3.2 (≈ 8.78 µM)	> 20	> 60			
C[C@H](NC(=O)c1ncn2cc(-c3ccc(F)cc3)cnc12)C1CC1 [III-37]				2.2 (≈ 6.78 µM)	< 10	< 30
Cc1cc(-c2ccccc2CC#N)nc2c(C(=O)NC(C3CC3)C(F)(F)F)ncn12 (stereo not drawn) [IV-40]	15.4 (≈ 37.3 µM)	< 10	30 to 60			
CCc1cc(N2CCCC(F)(F)C2)nc2c(C(=O)NC(C3CC3)C(F)(F)F)ncn12 (stereo not drawn) [III-137]				12 (≈ 27.8 µM)	10 to 20	> 60
CO[C@H]1CC[C@H](C(C)(C)NC(=O)c2ncn3c(C)cc(-c4cccnc4)nc23)CC1 [III-73]				19.3 (≈ 47.4 µM)	< 10	< 30
Cc1cc(-c2cnsc2)nc2c(C(=O)NC(C3CC3)C(F)(F)F)ncn12 (stereo not drawn) [IV-51]	2.1 (≈ 5.51 µM)	> 20	> 60			
Cc1cc(-c2ccc(F)cc2)nc2c(C(=O)NC(C)(C)C3CC3)ncn12 [III-26]				1.6 (≈ 4.54 µM)	> 20	> 60
Cc1cc(C)n2cnc(C(=O)NC(C3CCCCC3)C(F)(F)F)c2n1 (stereo not drawn) [III-15]				4 (≈ 11.3 µM)	> 20	> 60
COc1c(F)cccc1-c1cc(C)n2cnc(C(=O)N[C@@H](C)C3CC3)c2n1 [IV-62]	16 (≈ 43.4 µM)	< 10	> 60			
Cc1cc(-c2cccc(F)c2)nc2c(C(=O)NC(C)(C)C)ncn12 [III-124]				3.4 (≈ 10.4 µM)	> 20	> 60
Cc1cc(N2CCCC(F)(F)C2)nc2c(C(=O)NC(C3CC3)C(F)(F)F)ncn12 (stereo not drawn) [IV-113]	17.2 (≈ 41.2 µM)	> 20	> 60			
COc1cc(-c2cc(C)n3cnc(C(=O)NC(C4CC4)C4CC4)c3n2)ccc1F [III-174]				0.3 (≈ 0.761 µM)	> 20	> 60
Cc1cc(-c2ccco2)nc2c(C(=O)NC(C3CC3)C(F)(F)F)ncn12 (stereo not drawn) [IV-83]	1.2 (≈ 3.29 µM)	> 20	> 60			
Cc1cc(-n2cccn2)nc2c(C(=O)NC(C)(C)C3CC3)ncn12 [III-70]				10.5 (≈ 32.4 µM)	< 10	30 to 60
Cc1cc(-c2cccc(-c3ncco3)c2)nc2c(C(=O)NC(C3CC3)C(F)(F)F)ncn12 (stereo not drawn) [IV-60]	2.3 (≈ 5.21 µM)	> 20	> 60			
COc1cc(F)cc(-c2cc(C)n3cnc(C(=O)NC(C4CC4)C4CC4)c3n2)c1 [III-173]				1.7 (≈ 4.31 µM)	> 20	> 60
COc1cc(F)cc(-c2cc(C)n3cnc(C(=O)NC(C4CC4)C(F)(F)F)c3n2)c1 (stereo not drawn) [III-170]				0.1 (≈ 0.237 µM)	> 20	> 60
Cc1cc(-c2cnsc2)nc2c(C(=O)NC(C)(C)C3CC3)ncn12 [III-59]				2.1 (≈ 6.15 µM)	10 to 20	> 60
Cc1cc(-n2ccc(Cl)n2)nc2c(C(=O)NC(C)(C)C3CC3)ncn12 [III-142]				14.9 (≈ 41.5 µM)	< 10	< 30
Cc1cc(-c2cc(F)cc(F)c2)nc2c(C(=O)N[C@@H](C)C3CC3)ncn12 [III-111]				1.3 (≈ 3.65 µM)	> 20	> 60
C#CC(C)(C)NC(=O)c1ncn2c(C)cc(-c3cccc(OC4CC4)c3)nc12 [III-186]				1.5 (≈ 4.01 µM)	> 20	> 60
